Source: patent publication US20080207716A1, “Formulations and Dosing Regiment for Ppar-Alpha Modulators” (Eli Lilly and Company Patent Division, priority 2005, published 2008)

Key:
Type in all cases: in vivo, human
[1] = system: healthy obese men and women; experiment: Meal tolerance test in the single-dose (SDSS) portion of the clinical study; conditions: for Triglyceride AUEC(24-37) geometric mean (95% CI): 24-37 h post dose, placebo 44.6
From the text: (§1) A single-blinded, single- (SDSS) and multiple-dose (MDSS), placebo-controlled, dose-escalation study is designed to evaluate the safety, pharmacokinetics, and pharmacodynamics of orally administered study drug in healthy obese men and women. Three different groups of subjects complete a one-step escalation of the study drug dose within Periods 1 and 2 (SDSS). […] The decision to escalate to higher doses is based on the safety assessment of preceding doses. The minimum time between dose escalations within Periods 1 and 2 is one week.
(§2) Safety is assessed throughout the study by physical examination, adverse event monitoring, electrocardiograms, clinical laboratory tests, and vital sign measurements. Pharmacodynamic evaluation includes a postprandial lipid response during the single-dose safety portion. During the multiple-dose safety study, the pharmacodynamic evaluation includes an oral glucose tolerance test, a fasting lipid panel and a postprandial lipid test. The static lipid panel included triglycerides, total cholesterol, low-density lipoprotein cholesterol [LDL-C], high-density lipoprotein cholesterol [HDL-C], Apoliproteins A1, A2, B, and C3 for cholesterol metabolism. C-reactive protein (CRP) and adiponectin are measured as biomarkers for inflammation and peroxisome proliferated agonist receptor (PPAR) gamma activity, respectively. The dynamic lipid tests include post-prandial measurements of glucose and triglycerides.
A meal tolerance test (MTT) was performed from 24 to 37 hours after each single dose during the SDSS portion of a clinical trial conducted substantially as described herein by Example 1 using LY518674 as the study drug. The data are analyzed by calculating an area under the concentration-time curve for triglycerides, nonesterified fatty acids and glucose over the postprandial periods from breakfast to lunch (area under the effect curve [AUEC{24-28}]), after lunch (AUEC[28-37]), and the entire test period (AUEC[24-37]).

[2] = system: healthy obese men and women; experiment: Safety and tolerability assessment, SDSS clinical study; conditions: single oral doses 30 and 60 mg
Description: (§3) A single-blinded, single- (SDSS) and multiple-dose (MDSS), placebo-controlled, dose-escalation study is designed to evaluate the safety, pharmacokinetics, and pharmacodynamics of orally administered study drug in healthy obese men and women. Three different groups of subjects complete a one-step escalation of the study drug dose within Periods 1 and 2 (SDSS). The design includes a total of 6 active doses (0.1, 1, 10, 30, 60, and 100 mg) to be tested. The decision to escalate to higher doses is based on the safety assessment of preceding doses. The minimum time between dose escalations within Periods 1 and 2 is one week.
as §2, with “The static lipid panel included triglycerides, total cholesterol, low-density lipoprotein cholesterol [LDL-C], high-density lipoprotein cholesterol [HDL-C], Apoliproteins A1, A2, B, and C3 for cholesterol metabolism.” left out, “The dynamic lipid tests include post-prandial measurements of glucose and triglycerides.” left out

[3] = Pharmacokinetics after oral single- and multiple-dose administration
Description: as §3
(§4) Each of the 3 groups of subjects consist of approximately 9 subjects in a 2:1 ratio of active treatment to placebo, where the order of placebo administration is randomized across both the SDSS and MDSS portions of the study. All 3 groups of subjects shall be scheduled to participate in both SDSS and MDSS portions. However, the SDSS portion is completed and analyzed several months prior to beginning the MDSS (Period 3/4). The 45-day MDSS portion of the original study is designed to test 4 active doses (0.025, 0.1, 1 and 10 mg) administered daily for the first 14 days of the study. The MDSS portion recruits subjects to form 4 groups of subjects. Approximately 36 subjects (9 per dose group) are enrolled into the MDSS portion of the study.
The median time at maximal concentration (tmax) was approximately 0.5 to 1 hour. The exposure appeared dose-proportional within the studied range.

[4] = system: healthy obese men and women; experiment: Lipid pharmacodynamics (LDL-C, ApoB, ApoC), SDSS clinical study
From the text: as §1
as §2, with “The dynamic lipid tests include post-prandial measurements of glucose and triglycerides.” left out

healthy obese subjects = experiment: Fasting lipid panel, MDSS clinical study (14 days daily dosing, 30 day follow up)
From the text: FIG. 1. FIG. 1 illustrates the time profile of percentage change from baseline for LDL-C following the administration of daily oral doses of LY518674 over 14 days and 30 day follow up afterwards, in healthy obese subjects in MDSS of a study conducted substantially as described by Example 1.
as §4, §2

half-life ([3]; both sexes, human, in vivo, oral, as stated in MDSS results): ~10 h
half-life ([3]; both sexes, human, in vivo, oral, as stated in SDSS/PK results): < 10 h
Tmax ([3]; both sexes, human, in vivo, oral, healthy obese subjects, read-out: Median time at maximal concentration (tmax)): 0.5 to 1 h
Time to steady-state exposure ([3]; daily oral dosing): ≤ 2 days
Mean accumulation ratio ([3]; daily oral dosing, steady state): no more than 1.35
Absorption after oral administration ([3]; healthy obese subjects): rapidly absorbed
Pharmacokinetics following single- versus multiple-dose administration ([3]; in vivo): No differences
Exposure versus dose ([3]; within the studied dose range): dose-proportional
SMILES: Cc1ccc(Cn2nc(CCCc3ccc(OC(C)(C)C(=O)O)cc3)[nH]c2=O)cc1 [LY518674, Propanoic Acid, 2-[4-[3-[2,5-dihydro-1-[(4-methylphenyl)methyl]-5-oxo-1H-1,2,4-triazol-3-yl]propyl]phenoxy]-2-methyl-]
Lowest dose providing a pharmaceutically desirable effect ([1]; single dose study): 100 µg
Effect on triglyceride (TG) AUEC ([1]; single dose, meal tolerance test 24 to 37 hours post dose): rapid and profound reduction
Dose at which maximum TG AUEC reduction is approached ([1]; single oral dose): approximately 1 mg
Triglyceride AUEC(24-37) geometric mean (95% CI) ([1]; single oral dose 0.01 mg): 37.8 (31.2, 45.8) mmol · hr/L
Triglyceride AUEC(24-37) ratio of geometric means, dose vs. placebo (95% CI) ([1]; single oral dose 0.01 mg, p 0.083): 0.85 (0.70, 1.02) [0.083]
Triglyceride AUEC(24-37) geometric mean (95% CI) ([1]; single oral dose 0.1 mg): 27.6 (23.0, 33.2) mmol · hr/L
Triglyceride AUEC(24-37) ratio of geometric means, dose vs. placebo (95% CI) ([1]; single oral dose 0.1 mg, p <.001): 0.62 (0.52, 0.74) [<.001*]
Triglyceride AUEC(24-37) geometric mean (95% CI) ([1]; single oral dose 1 mg): 23.9 (20.0, 28.6) mmol · hr/L
Triglyceride AUEC(24-37) ratio of geometric means, dose vs. placebo (95% CI) ([1]; single oral dose 1 mg, p <.001): 0.54 (0.45, 0.64) [<.001*]
Triglyceride AUEC(24-37) geometric mean (95% CI) ([1]; single oral dose 10 mg): 24.3 (20.1, 29.5) mmol · hr/L
Triglyceride AUEC(24-37) ratio of geometric means, dose vs. placebo (95% CI) ([1]; single oral dose 10 mg, p <.001): 0.55 (0.45, 0.67) [<.001*]
Triglyceride AUEC(24-37) geometric mean (95% CI) ([1]; single oral dose 30 mg): 20.0 (16.3, 24.5) mmol · hr/L
Triglyceride AUEC(24-37) ratio of geometric means, dose vs. placebo (95% CI) ([1]; single oral dose 30 mg, p <.001): 0.45 (0.37, 0.54) [<.001*]
Triglyceride AUEC(24-37) geometric mean (95% CI) ([1]; single oral dose 60 mg): 25.2 (20.6, 30.7) mmol · hr/L
Triglyceride AUEC(24-37) ratio of geometric means, dose vs. placebo (95% CI) ([1]; single oral dose 60 mg, p <.001): 0.56 (0.46, 0.69) [<.001*]
Tolerability finding prohibiting administration of higher doses [2]: Gastrointestinal intolerance
ApoB and ApoC change ([4]; SDSS, oral): decreased in a fashion similar to that seen for LDL-C changes
LDL-C change ([4]; single oral dose 0.01 mg): LDL-C reduction consistent with the reduction observed at the higher doses
Lowest dose providing a pharmaceutically desirable effect (healthy obese subjects; MDSS study): 25 µg
Maintenance of pharmacological effect after dosing stopped (healthy obese subjects; after 14 days daily dosing): ~14 days
Time for all parameters to return to baseline after cessation of dosing (healthy obese subjects; after 14 days daily dosing): ≤ 2 weeks
LDL-C change (healthy obese subjects; daily oral doses 0.025, 0.1, 1 and 10 mg for 14 days, all doses similar magnitude): dramatically reduced
